The results in this text go back to US8901317B2, “Tryptamine derivatives, their preparation and their use in gastropathy” (Council of Scientific & Industrial Research, priority 2010, dated 2014).

Test [1] has as its system indomethacin-induced gastric mucosal damage. Put plainly: Indomethacin-induced gastric mucosal damage (ulcer index, histology). The test is classed as in vivo, Sprague-Dwaley rats. The method, then:
Sprague-Dwaley rats (180-220 gm) were used for this study. Each group (control or experimental) of animals was maintained at 24±2° C. with 12 hrs lights and dark cycle. The animals were fasted for 24 hrs before the start of experiments. They were provided with water ad libitum to avoid food-induced increased acid secretion and its effect on gastric lesions. Gastric mucosal ulcer was developed by indomethacin as described (Pal, C; et al. Free Radic Biol Med, 49(2), 258-267; 2010, Biswas, K.; et al. J. Biol. Chem. 278:10993-11001; 2003, Bandyopadhyay, U.; et al. Life Sci. 71:2845-2865; 2002). Briefly, all the animals were divided into control, indomethacin and test compound group. Oral administration of indomethacin at a dose of 48 mg kg^−1 b.w was given to the fasted animals to induce gastric ulcer. […] Control group received vehicle only but no indomethacin. After 4 hrs of indomethacin treatment, the animals were sacrificed under proper euthanasia and stomachs were collected. The mucosal injury was scored as ulcer index as follows: 0=no pathology; 1=one pinhead ulcer. The sum of the total scores divided by the number of animals gave the ulcer index. All the in vivo studies were done in accordance with the institute animal ethical committee guidelines. To see the effect of SEGA on diclofenac induced gastric mucosal injury, gastric mucosal damage was developed by the oral administration of diclofenac (75 mg kg^−1) and the rest of the experiment was carried out in a similar way as described for indomethacin. Diclofenac produced pinhead ulcer like indomethacin and the mucosal injury was scored as ulcer index as described above. Ethanol-induced gastric mucosal injury was developed with oral administration of 1 ml of 50% ethanol (Banerjee, R. K. (2002) Life Sci 71, 2845-2865) and after 4 hrs the animals were sacrificed and cold-restrain stress induced mucosal injury was developed by immobilizing the animals at 4° C. for 3.5 hrs (Banerjee, R. K. (2002) Life Sci 71, 2845-2865, (2003) J Biol Chem 278, 10993-11001).
Stomach tissues from the animals of different groups were washed first washed several times with PBS (pH 7.4) and later fixed in 10% buffered formalin for 12 hrs at 25° C. The formalin-fixed tissues were then dehydrated and embedded in paraffin for preparing semi-thin sections (Maity, P.; et al. J. Biol. Chem. 283:14391-14401; 2008). The semi-thin sections were prepared using a microtome and taken over poly-L-lysine coated glass slide for hematoxylene-eosine staining. The stained sections were observed under microscope (Leica DM-2500, Germany) and were documented by high-resolution digital camera.

For test [2], the system named is diclofenac induced gastric mucosal injury. Put plainly: Diclofenac-induced gastric mucosal injury (ulcer index). The test is classed as in vivo, Sprague-Dwaley rats. As to conditions: diclofenac 75 mg kg^−1 oral. The method, then: Sprague-Dwaley rats (180-220 gm) were used for this study. Each group (control or experimental) of animals was maintained at 24±2° C. with 12 hrs lights and dark cycle. The animals were fasted for 24 hrs before the start of experiments. They were provided with water ad libitum to avoid food-induced increased acid secretion and its effect on gastric lesions. Gastric mucosal ulcer was developed by indomethacin as described (Pal, C; et al. Free Radic Biol Med, 49(2), 258-267; 2010, Biswas, K.; et al. J. Biol. Chem. 278:10993-11001; 2003, Bandyopadhyay, U.; et al. Life Sci. 71:2845-2865; 2002). Briefly, all the animals were divided into control, indomethacin and test compound group. Oral administration of indomethacin at a dose of 48 mg kg^−1 b.w was given to the fasted animals to induce gastric ulcer. In the drug-pretreated groups, the animals were given drug (50, 20, 10, 5, 3, 1 mg kg^−1 b.w.) intraperitoneally 30 min prior to ulcer induction with indomethacin. Control group received vehicle only but no indomethacin. After 4 hrs of indomethacin treatment, the animals were sacrificed under proper euthanasia and stomachs were collected. The mucosal injury was scored as ulcer index as follows: 0=no pathology; 1=one pinhead ulcer. The sum of the total scores divided by the number of animals gave the ulcer index. All the in vivo studies were done in accordance with the institute animal ethical committee guidelines. To see the effect of SEGA on diclofenac induced gastric mucosal injury, gastric mucosal damage was developed by the oral administration of diclofenac (75 mg kg^−1) and the rest of the experiment was carried out in a similar way as described for indomethacin. Diclofenac produced pinhead ulcer like indomethacin and the mucosal injury was scored as ulcer index as described above. Ethanol-induced gastric mucosal injury was developed with oral administration of 1 ml of 50% ethanol (Banerjee, R. K. (2002) Life Sci 71, 2845-2865) and after 4 hrs the animals were sacrificed and cold-restrain stress induced mucosal injury was developed by immobilizing the animals at 4° C. for 3.5 hrs (Banerjee, R. K. (2002) Life Sci 71, 2845-2865, (2003) J Biol Chem 278, 10993-11001).

For another test, the system named is caspase-3. Description: Caspase-3 activity in gastric mucosal tissue. The test is classed as in vivo, rats. The settings on record: in dose dependent manner; gastric mucosa. The method, then: (§1) From cytosolic fraction of gastric mucosal tissues, caspase-9 and caspse-3 activities were measured using commercially available kit (Biovision, Mountain View, Calif., USA and Sigma respectively). In brief, the gastric mucosa was homogenized in caspase lysis buffer (provided with the respective kit). The homogenate was centrifuged at 16,000×g for 15 min. The supernatant was collected and mixed with 50 μl of 2× reaction buffer (provided with the respective kit). This was followed by addition of the substrates: […] (200 μM final concentration) for caspase-3 and LEHD-pNA (200 μM final concentration) for caspase-9. The mixture was incubated at 37° C. for 1 hr and absorbance was taken at 405 nm (Maity, P.; et al. J. Biol. Chem. 284:3058-3068; 2009, Maity, P.; et al. J. Biol. Chem. 283:14391-14401; 2008, Maity, P.; et al. J. Pineal Res. 46:314-323; 2009).

A further test concerns caspase-9. Description: Caspase-9 activity in gastric mucosal tissue. The test is classed as in vivo, rats. The settings on record: gastric mucosa. The method, then:
as §1

In the case of `O=C(NCCc1c[nH]c2ccc(O)cc12)c1cc(O)c(O)c(O)c1` [Compound 3a, 3,4,5-trihydroxy-N-(2-(5-hydroxy-1H-indol-3-yl)ethyl)benzamide], the “Gastric mucosal damage (ulcer index)” value in test [1] (compound 6.9 mg kg^−1 intraperitoneally before indomethacin 48 mg kg^−1 oral, rats) came to 30 ± 3. Also, the “protection, indomethacin-induced gastric mucosal injury” value is 17% in test [1] (dose 1 mg kg^−1 i.p.); 28% in test [1] (dose 3 mg kg^−1 i.p.); 45% in test [1] (dose 5 mg kg^−1 i.p.); 62% in test [1] (dose 10 mg kg^−1 i.p.); 82% in test [1] (dose 20 mg kg^−1 i.p.); 94% in test [1] (dose 50 mg kg^−1 i.p.). Moreover, the “ED50, prevention of indomethacin-induced gastric mucosal damage” value in test [1] (intraperitoneal, rats, listed as SEGA (3a)) was 6.9 mg/kg. Also, in test [1] (pretreated indomethacin-treated rats), the “histology of gastric mucosal tissue (haematoxylin-eosin)” value was “could protect gastric mucosa”. Besides, the “protection, diclofenac induced ulcer” value is reported as 22% in test [2] (dose 1 mg kg^−1 i.p.); 25% in test [2] (dose 3 mg kg^−1 i.p.); 42% in test [2] (dose 5 mg kg^−1 i.p.); 57% in test [2] (dose 10 mg kg^−1 i.p.); 72% in test [2] (dose 20 mg kg^−1 i.p.); 82% in test [2] (dose 50 mg kg^−1 i.p.). Further, the “indomethacin-induced activation of caspase-3” value with caspase-3 is given as “prevents indomethacin-induced activation of caspase-3”. Besides, the “activation of caspase-9 during indomethacin treatment” value with caspase-9 is listed as “prevents the activation of caspase-9”.
